Assay results: US10654837B2, “Sulphamoylaryl derivatives and use thereof as medicaments for the treatment of liver fibrosis” (Janssen Pharmaceutica NV, priority 2017, dated 2020)

Target: T1, 5HTR2B (Homo sapiens, UniProt P41595)
T1 construct: host or cells: human Maverick/293 cells
Assay: 5HTR2B antagonist activity, calcium mobilization assay in human Maverick/293 cells (serotonin as agonist)
Type: cell-based
Details: intracellular calcium, emission 525 nm, read-out: Ca assay IC50
In short: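 Calcium mobilization read over 80 s at ex 485/em 525 nm after serotonin addition. Before that, 2 h serum-free starvation, 50 min dye loading at 37 °C, and 15-30 min antagonist exposure. IC50 from sigmoidal fit of peak % inhibition.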

T1 sequence (P41595 whole entry): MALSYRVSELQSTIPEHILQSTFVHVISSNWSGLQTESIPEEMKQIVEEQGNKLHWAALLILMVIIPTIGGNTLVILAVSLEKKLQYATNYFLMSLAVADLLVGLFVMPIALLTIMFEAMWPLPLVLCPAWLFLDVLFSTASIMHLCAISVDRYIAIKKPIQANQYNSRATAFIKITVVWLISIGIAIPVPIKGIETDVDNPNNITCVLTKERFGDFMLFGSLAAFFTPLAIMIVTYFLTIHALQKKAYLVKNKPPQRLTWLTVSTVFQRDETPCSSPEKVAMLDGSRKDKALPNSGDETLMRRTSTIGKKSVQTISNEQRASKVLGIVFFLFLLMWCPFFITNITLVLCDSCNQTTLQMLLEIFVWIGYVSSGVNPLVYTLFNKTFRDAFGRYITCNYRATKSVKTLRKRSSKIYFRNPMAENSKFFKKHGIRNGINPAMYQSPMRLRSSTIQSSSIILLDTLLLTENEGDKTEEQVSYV

IC50	Structure (SMILES)
28 nM	COc1ccc(S(=O)(=O)N[C@H]2CCOC2)cc1C(=O)Nc1ccc(Br)cc1 [Compound 125, (S)—N-(4-Bromophenyl)-2-methoxy-5-(N-(tetrahydrofuran-3-yl)sulfamoyl) benzamide]
17 nM	COc1ccc(S(=O)(=O)N[C@H]2CCOC2)cc1C(=O)Nc1cccc(F)c1F [Compound 113, (S)—N-(2,3-Difluorophenyl)-2-methoxy-5-(N-(tetrahydrofuran-3-yl)sulfamoyl) benzamide]
2.9 nM	COc1ccc(S(=O)(=O)N[C@H]2CCOC2)cc1C(=O)Nc1cc(F)cc(Cl)c1 [Compound 68, (S)—N-(3-Chloro-5-fluorophenyl)-2-methoxy-5-(N-(tetrahydrofuran-3-yl)sulfamoyl)benzamide]
4.6 nM	COc1ccc(S(=O)(=O)N[C@H]2CCOC2)cc1C(=O)Nc1cccc(F)c1 [Compound 100, (S)—N-(3-Fluorophenyl)-2-methoxy-5-(N-(tetrahydrofuran-3-yl)sulfamoyl) benzamide]
0.4 nM	COc1ccc(S(=O)(=O)N[C@H]2CCOC2)cc1C(=O)Nc1ccc(Cl)cc1F [Compound 114, (S)—N-(4-Chloro-2-fluorophenyl)-2-methoxy-5-(N-(tetrahydrofuran-3-yl)sulfamoyl)benzamide]
0.8 nM	COc1ccc(S(=O)(=O)N[C@H]2CCNC2)cc1C(=O)Nc1ccc(Cl)cc1F [Compound 185, (S)—N-(4-chloro-2-fluorophenyl)-2-methoxy-5-(N-(pyrrolidin-3-yl)sulfamoyl) benzamide]
12 nM	COc1ccc(S(=O)(=O)N[C@H]2CCOC2)cc1C(=O)Nc1c(F)cccc1F [Compound 105, (S)—N-(2,6-Difluorophenyl)-2-methoxy-5-(N-(tetrahydrofuran-3-yl)sulfamoyl) benzamide]
136 nM	COc1ccc(S(=O)(=O)N[C@H]2CCOC2)cc1C(=O)Nc1cccc(C#N)c1F [Compound 92, (S)—N-(3-Cyano-2-fluorophenyl)-2-methoxy-5-(N-(tetrahydrofuran-3-yl)sulfamoyl)benzamide]
0.2 nM	COc1ccc(S(=O)(=O)N[C@H]2CCOC2)cc1C(=O)Nc1ccc(F)cc1Cl [Compound 66, (S)—N-(2-Chloro-4-fluorophenyl)-2-methoxy-5-(N-(tetrahydrofuran-3-yl)sulfamoyl)benzamide]
0.1 nM	COc1cc(F)ccc1NC(=O)c1cc(S(=O)(=O)N[C@H]2CCOC2)ccc1OC [Compound 135, (S)—N-(4-fluoro-2-methoxyphenyl)-2-methoxy-5-(N-(tetrahydrofuran-3-yl)sulfamoyl)benzamide]
1.6 nM	COc1ccc(S(=O)(=O)N[C@H]2CCOC2)cc1C(=O)Nc1ccccc1F [Compound 99, (S)—N-(2-Fluorophenyl)-2-methoxy-5-(N-(tetrahydrofuran-3-yl)sulfamoyl) benzamide]
186 nM	COc1ccc(S(=O)(=O)N[C@H]2CCOC2)cc1C(=O)Nc1cc(F)c(F)c(F)c1 [Compound 97, (S)-2-Methoxy-5-(N-(tetrahydrofuran-3-yl)sulfamoyl)-N-(3,4,5-trifluorophenyl) benzamide]
3.8 nM	COc1ccc(S(=O)(=O)N[C@H]2CCOC2)cc1C(=O)Nc1ncccc1Cl [Compound 121, (S)—N-(3-Chloropyridin-2-yl)-2-methoxy-5-(N-(tetrahydrofuran-3-yl)sulfamoyl) benzamide]

More lines, now with the values behind:

Structure (SMILES)	IC50
COc1ccc(S(=O)(=O)N[C@H]2CCOC2)cc1C(=O)Nc1ccncn1 [Compound 165, (S)-2-Methoxy-N-(pyrimidin-4-yl)-5-(N-(tetrahydrofuran-3-yl)sulfamoyl) benzamide]	511 nM
COc1ccc(S(=O)(=O)N[C@H](C)CC#N)cc1C(=O)Nc1ccc(F)c(C)c1 (single isomer, unassigned) [Compound 11b, (R*)-5-(N-(1-Cyanopropan-2-yl)sulfamoyl)-N-(4-fluoro-3-methylphenyl-2-methoxybenzamide]	5.1 nM
COc1ccc(S(=O)(=O)NC2(C(F)(F)F)CC2)cc1C(=O)Nc1ccc(F)cc1 [Compound 50, N-(4-Fluorophenyl)-2-methoxy-5-(N-(1-(trifluoromethyl)cyclopropyl)sulfamoyl)benzamide]	7.6 nM
COCC(C)NS(=O)(=O)c1ccc(OC)c(C(=O)Nc2ccc(F)c(C(F)F)c2)c1 (single isomer, unassigned) [Compound 32a, (R*)—N-(3-(Difluoromethyl)-4-fluorophenyl)-2-methoxy-5-(N-(1-methoxypropan-2-yl)sulfamoyl)benzamide]	1.8 nM
COc1ccc(S(=O)(=O)N[C@H]2CCOC2)cc1C(=O)Nc1nc(C)c(C)s1 [Compound 83, (S)—N-(4,5-dimethylthiazol-2-yl)-2-methoxy-5-(N-(tetrahydrofuran-3-yl)sulfamoyl)benzamide]	126 nM
COc1ccc(S(=O)(=O)N[C@H](C)C(N)=O)cc1C(=O)Nc1ccc(F)c(C)c1 [Compound 12b, (R)-5-(N-(1-Amino-1-oxopropan-2-yl)sulfamoyl)-N-(4-fluoro-3-methylphenyl)-2-methoxybenzamide]	122 nM
COc1ccc(S(=O)(=O)N[C@@H](C)C(N)=O)cc1C(=O)Nc1ccc(F)c(C(F)F)c1 [Compound 34a, (S)-5-(N-(1-Amino-1-oxopropan-2-yl)sulfamoyl)-N-(3-(difluoromethyl)-4-fluorophenyl)-2-methoxybenzamide]	1.4 nM
COc1ccc(S(=O)(=O)N[C@H]2C[C@@H](O)C2)cc1C(=O)Nc1ccc(F)cn1 [Compound 157, N-(5-Fluoropyridin-2-yl)-5-(N-((cis)-3-hydroxycyclobutyl)sulfamoyl)-2-methoxybenzamide]	53 nM
COc1ccc(S(=O)(=O)NC2CC(C)(C)C2)cc1C(=O)Nc1ccc(F)c(C)c1 [Compound 14, 5-(N-(3,3-Dimethylcyclobutyl)sulfamoyl)-N-(4-fluoro-3-methylphenyl)-2-methoxybenzamide]	14.6 nM
COc1ccc(S(=O)(=O)NC2COC[C@H]2O)cc1C(=O)Nc1ccccc1Cl (stereo in doubt) [Compound 56b, N-(2-Chlorophenyl)-5-(N-((cis)-4-hydroxytetrahydrofuran-3-yl)sulfamoyl)-2-methoxybenzamide]	0.2 nM
COc1ccc(S(=O)(=O)N[C@H]2CCNC2)cc1C(=O)Nc1ccccc1Cl [Compound 179, (S)—N-(2-Chlorophenyl)-2-methoxy-5-(N-(pyrrolidin-3-yl)sulfamoyl)benzamide]	0.1 nM
COc1ccc(S(=O)(=O)N[C@H]2CCOC2)cc1C(=O)Nc1c(F)cc(C#N)cc1F [Compound 80, (S)—N-(4-cyano-2,6-difluorophenyl)-2-methoxy-5-(N-(tetrahydrofuran-3-yl)sulfamoyl)benzamide]	574 nM
COc1ccc(S(=O)(=O)N[C@H](C)C(N)=O)cc1C(=O)Nc1ccc(F)cc1 [Compound 46a, (R)-5-(N-(1-Amino-1-oxopropan-2-yl)sulfamoyl)-N-(4-fluorophenyl)-2-methoxybenzamide]	1.5 nM
COc1ccc(S(=O)(=O)N[C@H]2C[C@@H](O)C2)cc1C(=O)Nc1ccccc1Cl [Compound 155, N-(2-Chlorophenyl)-5-(N-((cis)-3-hydroxycyclobutyl)sulfamoyl)-2-methoxy benzamide]	0.2 nM
COc1ccc(S(=O)(=O)NC(C)C)cc1C(=O)Nc1ccc(F)c(C)n1 [Compound 25, N-(5-Fluoro-6-methylpyridin-2-yl)-5-(N-isopropylsulfamoyl)-2-methoxy benzamide]	1.4 nM
